Assay results published in PubChem BioAssay (NCI).
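Where inhibition never reached the appropriate level, the endpoint shown equals the highest concentration tested. Otherwise, values were interpolated linearly from a five-concentration, 48-hour dose response in 96-well plates. TGI: total growth inhibition.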

Assays:
Experiment in all cases: growth of human tumour cells (NCI), 48 h
A498 renal = test system: A498 renal
MOLT-4 leukemia = test system: MOLT-4 leukemia
MDA-MB-435 = test system: MDA-MB-435
MALME-3M melanoma = test system: MALME-3M melanoma
MDA-N = test system: MDA-N
SNB-19 CNS = test system: SNB-19 CNS
HS 578T breast = test system: HS 578T breast
OVCAR-4 ovarian = test system: OVCAR-4 ovarian
LOX IMVI melanoma = test system: LOX IMVI melanoma
SNB-75 CNS = test system: SNB-75 CNS
ACHN renal = test system: ACHN renal
NCI-H226 lung = test system: NCI-H226 lung
HCT-15 colon = test system: HCT-15 colon
SK-MEL-5 melanoma = test system: SK-MEL-5 melanoma
KM12 colon = test system: KM12 colon
SK-MEL-2 melanoma = test system: SK-MEL-2 melanoma
RPMI-8226 leukemia = test system: RPMI-8226 leukemia
SR leukemia = test system: SR leukemia
HT29 colon = test system: HT29 colon
BT-549 breast = test system: BT-549 breast

Compound	TGI (A498 renal) [µM]	TGI (MOLT-4 leukemia) [µM]	TGI (MDA-MB-435) [µM]	TGI (MALME-3M melanoma) [µM]	TGI (MDA-N) [µM]	TGI (SNB-19 CNS) [µM]	TGI (HS 578T breast) [µM]	TGI (OVCAR-4 ovarian) [µM]	TGI (LOX IMVI melanoma) [µM]	TGI (SNB-75 CNS) [µM]	TGI (ACHN renal) [µM]	TGI (NCI-H226 lung) [µM]	TGI (HCT-15 colon) [µM]	TGI (SK-MEL-5 melanoma) [µM]	TGI (KM12 colon) [µM]	TGI (SK-MEL-2 melanoma) [µM]	TGI (RPMI-8226 leukemia) [µM]	TGI (SR leukemia) [µM]	TGI (HT29 colon) [µM]	TGI (BT-549 breast) [µM]
CC(C)(C)OC(=O)NC(Cc1ccc(OC(C)(C)C)cc1)C(=O)N[C@H]1CCC[C@H]1C(=O)NC(Cc1ccccc1)C(=O)N1CCCC1C(N)=O (stereo not given in full)	> 100	> 100	> 100	> 100	> 100	> 100	> 100	> 100	> 100	> 100	> 100	> 100	> 100	> 100	> 100	> 100	> 100	> 100	> 100	
COC(=O)C1=C(C(=O)Nc2cccnc2Cl)N(c2ccc(OC)cc2[N+](=O)[O-])C(c2ccc(C)cc2)=CC1c1ccc(OC)cc1OC (stereo not given)	50.6	49.3	> 100	53.3		> 88.6	67.4	> 100	17	72.3	> 81.6	38.1	49.8	> 73.3	16.3	65	21.5	21.6	47.9	> 100
COC(=O)C1(C(=O)OC)C/C(C)=C(/C)SCCCS1		> 100	> 100	> 100	> 100	> 100	> 100	> 100	> 100	> 100	> 100	> 100	> 100	> 100	> 100	> 100		> 100	> 100	
COC(=O)[C@]12CCC(C)(C)C[C@H]1[C@H]1C(=O)C=C3[C@@]4(C)C=C(C#N)C(=O)C(C)(C)[C@@H]4CC[C@@]3(C)[C@]1(C)CC2	0.114	1.56	0.0585	0.143		0.243	2.14	> 7.76		3.62	0.0639	0.301	0.0392	0.109	0.159	0.187	0.126	0.141		0.194
Cc1nn(C(=O)Cc2ccccc2)c2c1C(c1ccc(Cl)cc1)SC(N)=N2 (stereo not given)	> 100	> 100	> 100	> 100			> 100		> 100	96.9	> 100		> 100	> 100	> 100		> 100	> 100	> 100	> 100
COc1ccc(-n2cnn3c(=O)c4cn[nH]c4nc23)cc1		> 10	> 10	> 10		> 10	> 10	> 10	> 10	> 10	> 10	> 10		> 10	> 10			> 10	> 10	> 10
Cc1ccc(-c2n[nH]c(=O)n2/N=C\c2ccc([N+](=O)[O-])cc2)cc1	> 100	> 100	> 94.2	> 100		> 100	> 100	> 100	> 100	> 100	> 100	> 100	> 100	> 100	> 100	> 100	> 100	> 100	> 100	> 100
COC(=O)c1ccccc1Nc1nc(-c2cccs2)nc2cc(OC)c(OC)cc12	> 100	> 100	> 100	> 100		> 100	> 100	> 100	> 100	> 100	> 100	89.4	> 100	> 100	> 100	> 100	> 100	> 100	> 100	> 100
CCOC(=O)c1c(NC(=O)OC)c(C#N)c2n1CCCCC2	> 100	> 100	> 100			> 100	> 100	> 100	> 100	> 100	> 100	> 100	> 100	> 100	> 100	> 100	> 100	> 100	> 100	> 100
COc1ccc(OC)c(C(Cc2ccnc3ccccc23)Cc2ccnc3ccccc23)c1	> 10	> 10	> 10			> 10	> 10	> 10	> 10	> 10	> 10	> 10	> 10	> 10	> 10	> 10	> 10		> 10	> 10
